According to PubChem BioAssay (NCI):
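Assay format: 96-well plates, 48-hour exposure. TGI marks complete inhibition of growth.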

Columns and labels:
Assay in all cases: inhibition of tumour cell growth, NCI panel, 48 h
[1] = test system: UACC-257 melanoma
[2] = test system: NCI-H226 lung
[3] = test system: NCI-H460 lung
[4] = test system: MOLT-4 leukemia
[5] = test system: SK-MEL-28 melanoma
[6] = test system: SK-MEL-5 melanoma
[7] = test system: CCRF-CEM leukemia
[8] = test system: LOX IMVI melanoma
[9] = test system: HS 578T breast
[10] = test system: T-47D breast
[11] = test system: UO-31 renal
[12] = test system: A498 renal
[13] = test system: SK-OV-3 ovarian
[14] = test system: PC-3 prostate
[15] = test system: OVCAR-8 ovarian
[16] = test system: OVCAR-3 ovarian

SMILES | TGI [1] | TGI [2] | TGI [3] | TGI [4] | TGI [5] | TGI [6] | TGI [7] | TGI [8] | TGI [9] | TGI [10] | TGI [11] | TGI [12] | TGI [13] | TGI [14] | TGI [15] | TGI [16]
CCOC(=O)C(Cc1ccc(N(CCCl)CCCl)cc1)NC(=O)CCCN1C(=O)CN=C(c2ccccc2)c2cc(Cl)ccc21 (configuration not stated) | 8.31 µM | 97 µM | > 100 µM | > 100 µM | 8.35 µM | 25.2 µM | > 100 µM | 8.99 µM | 52 µM | 11.2 µM | 30.8 µM | > 100 µM | > 100 µM | > 100 µM | > 100 µM | 5.32 µM
Cc1ccc(N=C2C(c3ccccc3)=C(SC3=C(c4ccccc4)C(=Nc4ccc(C)cc4)c4ccccc43)c3ccccc32)cc1 | > 100 µM | > 63.1 µM | 36.3 µM | > 100 µM | > 100 µM | > 100 µM | > 100 µM | > 100 µM | 22.9 µM | > 100 µM | 33.3 µM | 33.5 µM | 35.4 µM | > 100 µM | 24.7 µM | > 100 µM
COC1CC(O[C@H]2CC[C@@]3(C)[C@@H](CC[C@]4(O)[C@@H]3CC[C@]3(C)[C@@H](C(C)=O)[C@H](OC(=O)CC(C)C)[C@@H](OC(=O)c5ccccc5)[C@@]34O)C2)OC(C)C1OC1CC(OC)C(OC2OC(C)C(O)C(OC)C2O)C(C)O1 (some centres not stated) | > 25 µM | > 25 µM | > 25 µM | 22.4 µM | > 25 µM | > 25 µM | > 25 µM | > 25 µM | > 25 µM | > 25 µM | > 25 µM | > 25 µM | > 25 µM | > 25 µM | > 25 µM | > 25 µM
Cc1nnc(Sc2nc(C#N)c(C#N)nc2Sc2nnc(C)s2)s1 | 62 µM | 64.1 µM | > 76.1 µM | 5.47 µM | 47 µM | 46.2 µM | 5.15 µM | 9.18 µM | 99.4 µM | 12.9 µM | 23.9 µM | 53.3 µM | 34.2 µM | 30.7 µM | 8.34 µM | 25.3 µM
C#CC1NC(=O)C1N(CC)CC (configuration not stated) | > 100 µM | > 100 µM | > 100 µM | > 100 µM | > 100 µM | > 100 µM | > 100 µM | > 100 µM | > 100 µM | > 100 µM | > 100 µM | > 100 µM | > 100 µM | > 100 µM | > 100 µM | > 100 µM
COc1cccc(-c2c(-c3ccccc3)[nH]c(C)c2C(=O)ONC(=O)c2ccccc2)c1 | 26.6 µM | 30.7 µM | 11.4 µM | 18.2 µM | 30.4 µM | 23.9 µM | > 27.3 µM | 3.91 µM | 24 µM | 23.9 µM | 3.49 µM | 28.5 µM | 29.8 µM | 23.9 µM | 19.1 µM | 22.8 µM
Cn1c(N=P(c2ccccc2)(c2ccccc2)c2ccccc2)c([N+](=O)[O-])c(=O)n(C)c1=O | > 100 µM | > 100 µM | > 100 µM | 66.8 µM |  | > 100 µM | 76.6 µM | > 100 µM | > 100 µM | > 100 µM | > 100 µM | > 100 µM | > 100 µM | > 100 µM | 75.3 µM | > 100 µM
COc1cccc(/C=C\c2ccc(O)cc2)c1 | > 100 µM | > 88.8 µM | > 67.3 µM | 38.7 µM | > 100 µM | > 51.7 µM | 1.22 µM | 41.2 µM | 75 µM | > 84.2 µM | 33.7 µM | 69.8 µM | > 100 µM | 99.5 µM | 56.2 µM | > 82.7 µM
C=CC1(C)OC2(CCN(C(=O)OCC)CC2)OC1C (configuration not stated) | > 100 µM | > 100 µM | > 100 µM | > 100 µM | > 100 µM | > 100 µM | > 100 µM | > 100 µM | > 100 µM | > 100 µM | > 100 µM | > 100 µM | > 100 µM | > 100 µM | > 100 µM | > 100 µM
CN(CCCn1ccnc1[N+](=O)[O-])CCCn1ccnc1[N+](=O)[O-] | > 100 µM | > 100 µM | > 100 µM | > 100 µM | > 100 µM | > 100 µM | > 100 µM | > 100 µM | > 100 µM | > 100 µM | > 100 µM | > 100 µM | > 100 µM | > 100 µM | > 100 µM | > 100 µM
CC(=O)/C(C=Nc1c(C)n(C)n(C)c1=O)=C(/O)c1ccccc1 | > 50 µM | > 50 µM | > 50 µM | > 50 µM | > 50 µM | > 50 µM | > 50 µM | > 50 µM | > 50 µM | > 50 µM | > 50 µM | > 50 µM | > 50 µM | > 50 µM |  | > 50 µM
C1CN2CCNCCN(CCN1)CC2 | > 100 µM | > 100 µM | > 100 µM | > 100 µM | > 100 µM | > 100 µM | > 100 µM | > 100 µM | > 100 µM | > 100 µM | > 100 µM | > 100 µM | > 100 µM | > 100 µM | > 100 µM | > 100 µM
CCCC(=O)NC(Nc1ccc(S(=O)(=O)Nc2ccc(OC)nn2)cc1)(C(F)(F)F)C(F)(F)F | > 100 µM | > 100 µM | > 100 µM | > 100 µM | > 100 µM | > 100 µM | > 100 µM | > 100 µM | > 100 µM | > 100 µM | > 100 µM | > 100 µM | > 100 µM | > 100 µM | > 100 µM | > 100 µM
CC1=NN(c2nc(N)nc(/C(C#N)=C\c3cccc([N+](=O)[O-])c3)n2)C(C)(C)C1 | 49.3 µM | > 42.7 µM | 19.7 µM | > 66.5 µM | > 65 µM | > 42.6 µM | > 66.8 µM | 36.3 µM | 78.6 µM | 64.8 µM | 15.7 µM | > 37 µM | 57.4 µM | > 53.8 µM | 54 µM | 26.9 µM
